In series [1] the target is T1, 5-lipoxygenase (5-LO) (Oryctolagus cuniculus, UniProt G1SNX0).
T1 construct: Polymorphonuclear leukocytes (PMNLs) were purified from rabbits by glycogen-intraperitoneal elicited intraperitoneal recruitment; endogenous in cells; host or cells: rabbit peritoneal polymorphonuclear leukocytes (PMNL), glycogen-elicited
T1 sequence (G1SNX0 1-674): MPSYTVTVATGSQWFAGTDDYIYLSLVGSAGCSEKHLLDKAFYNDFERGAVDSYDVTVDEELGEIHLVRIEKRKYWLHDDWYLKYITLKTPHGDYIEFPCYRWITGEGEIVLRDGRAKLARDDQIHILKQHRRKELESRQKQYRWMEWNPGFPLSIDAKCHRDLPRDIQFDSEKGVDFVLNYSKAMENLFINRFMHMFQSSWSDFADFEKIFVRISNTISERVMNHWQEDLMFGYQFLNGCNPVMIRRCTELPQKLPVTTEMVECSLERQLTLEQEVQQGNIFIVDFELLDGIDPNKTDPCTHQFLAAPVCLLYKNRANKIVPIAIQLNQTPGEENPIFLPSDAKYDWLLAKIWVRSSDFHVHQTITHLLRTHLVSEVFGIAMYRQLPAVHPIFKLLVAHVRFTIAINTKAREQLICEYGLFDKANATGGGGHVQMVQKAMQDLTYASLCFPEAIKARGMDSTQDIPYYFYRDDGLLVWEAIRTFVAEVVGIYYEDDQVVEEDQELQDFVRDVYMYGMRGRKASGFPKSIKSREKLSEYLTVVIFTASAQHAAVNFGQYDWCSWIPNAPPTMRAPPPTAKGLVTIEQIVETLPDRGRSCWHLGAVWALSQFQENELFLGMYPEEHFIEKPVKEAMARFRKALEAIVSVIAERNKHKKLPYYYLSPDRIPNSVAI
Description: Radioisotopic assay of 5-LO activity (LTB4 formation from 14C-arachidonic acid) in rabbit peritoneal PMNL stimulated with A-23187. The class given is cell-based. As to conditions: for inhibition at 1 µM: rabbit peritoneal neutrophils (PMNL), mean ± s.d. of three experiments in duplicate, read-out: % Inhibition (percent inhibition of LTB4 formation); for in vitro 5-LO activity in words: peritoneal PMNL. The source says:
The 5-LO enzyme, which is found primarily in cells of myeloid origin such as polymorphonuclear leukocytes (“PMNL”), eosinophils, and macrophages, catalyzes the first step of the biochemical pathway in which arachadonic acid (“AA”) is,converted into LTA4. […] To test the inhibition of the quinone derivatives on the activity of 5-LO rabbit polymorphonuclear leucocytes (PMNLs) were used.
Polymorphonuclear leukocytes (PMNLs) were purified from rabbits by glycogen-intraperitoneal elicited intraperitoneal recruitment, as descrited in T. Yatabe et al., “Studies on 5-lipoxygenase inhibitors: I. Synthesis and 5-lipoxygenase inhibitory activity of novel hydroxanic acid derivatives,” chem. Pharm. Bull., vol. 46, pp. 966-972 (1998). An intraperitoneal injection of 300 mL of 0.1% (w/v) glycogen in sterile saline was administered 6 h before the rabbits were sacrificed by an intravascular injection of Nembutal. Peritoneal exudates were collected in 5 μM EGTA, and residual red cells were removed by lysis in ammonium chloride. These cell preparations were obtained with greater than 96% purity, as assessed by Wright-Giemsa staining and greater than 95% viability as assessed by Trypan blue exclusion.
PMNL cells in suspension were pre-incubated for 20 min at room temperature with ^14C-labeled arachadonic acid (AA) and diluted to 3000 cells μL^−1. Thereafter, the calcium ionophore A-23187 (1 μg/mL) was added to stimulate LTB4 production, and the cells further incubated for 15 min under stirring at 37° C. After incubation, the aqueous samples were successively shaken with a mixture of chloroform/methanol/formic acid (12:12:1) for 30 sec and then with chloroform for 10 sec. Organic phases containing LTB4, 5-HPETE (5-hydroperoxyeicosatetraenoic acid), diHPETEs (dihydroperoxyeicosatetraenoic acids), and prostaglandins (PGs) were pooled, evaporated to dryness under nitrogen and dissolved into a small amount of chloroform-MeOH (1:1). Separation of the 5-LO metabolites was performed by thin layer chromatography (TLC) on silica gel G plates developed in diethyl ether-hexane-acetic acid (60:40:1, v/v/v).
Bands containing 5-lipoxygenase (5-LO) metabolites were scraped from the TLC plates, and ^14C levels were quantitatively measured by liquid scintillation. 5-LO activity was an obtained from the amount of ^14C-arachidonic acid converted into LTB4 after the prelabeled PMNL cells were stimulated to produce LTB4 by the calcium ionophore as described above. IC50 was calculated as the concentration of the 5-LO antagonist that produced 50% inhibition of the metabolite conversion.
[…] IC50 values, calculated as theconcentration of test compound required to cause 50% inhibition of LTB4 formation, were also determined for some representative examples. […] These compounds, in general, correspond to compounds bearing the more lipophilic quinone fragments. […] See S. Ohkawa et al., “Dual Inhibition of Thromboxane A2 Synthetase and 5-Lipoxygenase with Scavenging Activity of Active Oxygen Species. Synthesis of a Novel Series of (3-Pyridylmethyl)benzoquinone Derivatives,” J. Med. Chem., vol. 34, pp. 267-276 (1991).

The subject of series [2] is arachidonic acid-induced ear inflammation in mice. Description: Arachidonic acid-induced ear inflammation in mice (AAE test). The class given is in vivo. Particulars: mice, topical.
Series [3] addresses T2, 5-LO (Rattus norvegicus, UniProt P12527).
T2 sequence (P12527 1-673): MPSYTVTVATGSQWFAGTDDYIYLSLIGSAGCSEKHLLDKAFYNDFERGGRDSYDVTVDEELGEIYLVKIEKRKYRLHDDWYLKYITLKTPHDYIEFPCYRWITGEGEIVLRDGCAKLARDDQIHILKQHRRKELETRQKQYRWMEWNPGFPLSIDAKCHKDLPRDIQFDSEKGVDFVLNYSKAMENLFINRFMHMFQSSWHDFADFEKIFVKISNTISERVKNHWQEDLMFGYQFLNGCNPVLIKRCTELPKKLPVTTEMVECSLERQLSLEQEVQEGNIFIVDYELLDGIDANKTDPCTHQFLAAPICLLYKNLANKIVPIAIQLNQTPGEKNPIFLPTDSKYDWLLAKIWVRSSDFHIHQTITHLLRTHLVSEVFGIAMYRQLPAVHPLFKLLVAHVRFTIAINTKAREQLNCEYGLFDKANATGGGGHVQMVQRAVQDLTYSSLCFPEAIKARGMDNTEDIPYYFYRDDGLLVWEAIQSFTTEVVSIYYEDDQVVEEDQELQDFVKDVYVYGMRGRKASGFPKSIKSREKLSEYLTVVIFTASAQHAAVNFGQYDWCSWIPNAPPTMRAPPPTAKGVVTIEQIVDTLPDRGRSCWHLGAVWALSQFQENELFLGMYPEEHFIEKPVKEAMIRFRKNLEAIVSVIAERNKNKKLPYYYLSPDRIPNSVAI
Kind of series: 5-LO inhibition by radioimmunoassay (RIA) in rat peritoneal PMNL. Particulars: inhibitors at 'AM final concentration' [sic], mean ± SD.
Description: (§1) Percent inhibition mean values ±SD from at least three individual determinations are shown.

Series [4] addresses COX-1 (Homo sapiens, UniProt P23219). Kind of series: In vitro inhibition of COX-1 activity. As to conditions: read-out: COX-1 percent inhibition.
Description: as §1
Where [5] appears, read: Mus musculus, 250 μg/ear, read-out: % inhibition of AA-induced ear inflammation.

As a reminder, the melting point is the temperature, or range, at which the solid turns liquid. One may read the inhibition as the relative decrease from the control value, in per cent.

Chain of COX-1 (P23219 24-599): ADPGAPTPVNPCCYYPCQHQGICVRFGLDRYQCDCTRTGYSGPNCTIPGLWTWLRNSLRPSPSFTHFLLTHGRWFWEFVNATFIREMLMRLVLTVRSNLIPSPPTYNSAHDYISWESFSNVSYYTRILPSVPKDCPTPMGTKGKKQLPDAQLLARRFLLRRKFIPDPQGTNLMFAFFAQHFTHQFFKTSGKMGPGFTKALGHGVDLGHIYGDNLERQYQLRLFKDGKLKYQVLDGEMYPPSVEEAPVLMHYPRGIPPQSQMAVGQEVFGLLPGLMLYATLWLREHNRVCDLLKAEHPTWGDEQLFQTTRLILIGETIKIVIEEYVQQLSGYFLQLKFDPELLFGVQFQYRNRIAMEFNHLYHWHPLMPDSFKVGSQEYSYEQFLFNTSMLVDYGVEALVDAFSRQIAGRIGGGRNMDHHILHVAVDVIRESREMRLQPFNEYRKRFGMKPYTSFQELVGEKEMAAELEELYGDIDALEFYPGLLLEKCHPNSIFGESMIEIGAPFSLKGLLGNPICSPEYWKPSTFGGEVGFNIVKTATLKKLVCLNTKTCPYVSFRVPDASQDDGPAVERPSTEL

Regarding `CC1=C(Nc2ccccn2)C(=O)c2ccccc2C1=O` [Compound 4j, 2-Methyl-3-(pyridin-2-ylamino)-[1,4]naphthoquinone], the melting point was 130 to 132 °C.

Turning to `O=C1C=C(Nc2ccc(Cl)cn2)C(=O)c2ccccc21` [Compound 4k, 2-(5-Choropyridin-2-ylamino)-[1,4]naphthoquinone], the melting point lay in the range of 251 to 252 °C. Besides, in series [1], the inhibition at 1 µM turned out to be 24 ± 3.7% and the “in vitro 5-LO activity in words” value was “significant inhibition of 5-LO”.

For `O=C1C=C(Nc2ncc(Cl)cc2Cl)C(=O)c2ccccc21` [Compound 4n, 2-(3,5-Dichloropyridin-2-ylamino)-[1,4]naphthoquinone], the melting point lay in the range of 249 to 250 °C.

As for `COc1ccc2c(c1)c(CC(=O)O)c(C)n2C(=O)c1ccc(Cl)cc1` [Indometacin, reference compound], in series [2] (setting [5]), the change in vivo at 250 µg/ear is -26.6 ± 7.3%.

`O=C1C=C(Nc2nccc(-c3ccccc3)n2)C(=O)c2ccccc21` [Compound 4u, 2-(4-Phenylpyrimidin-2-ylamino)-[1,4]naphthoquinone] showed a melting point of 229 to 230 °C.

`COC1=C(OC)C(=O)C(Nc2ccc(Cl)cn2)=C(C)C1=O` [Compound 4g, 2-(5-Chloropyridin-2-ylamino)-5,6-dimethoxy-3-methyl-[1,4]benzoquinone]: the melting point lay within 106 to 108 °C.

`O=C1C=C(Nc2cnccn2)C(=O)c2ccccc21` [Compound 4y, 2-(Pyrazin-2-ylamino)-[i, 4]naphthoquinone] came in with a melting point of 245 to 247 °C. Further, the “activation (LTB4 formation)” value in series [1] (at 0.1 μM, PMNL) is on record as “^d180% activation at 0.1 μM”. Moreover, in series [1], the “in vitro 5-LO activity in words” value is on record as “agonist activity”.

Take `CC1=CC(=O)C=C(Nc2cnccn2)C1=O` [Compound 4v, 2-Methyl-6-(pyrazin-2-ylamino)-[1,4]benzoquinone]: in series [1], the “in vitro 5-LO activity in words” value was “inactive”.

Compound `CC1=CC(=O)C=C(Nc2ccccn2)C1=O` [Compound 4b, 2-Methyl-6-(pyridin-2-ylamino)-[1,4]benzoquinone] yielded a melting point of 162 to 164 °C. The inhibition at 1 µM in series [1] was 86 ± 2.3%.

In turn, `CC1=CC(=O)C=C(Nc2ncccn2)C1=O` [Compound 4o, 2-Methyl-6-(pyrimidin-2-ylamino)-[l 4]benzoquinone] came in with a melting point of 167 to 169 °C. For the same compound, the inhibition at 1 µM in series [1] worked out at 56 ± 3.1%.

Take `CC1=CC(=O)C(Nc2cnccn2)=CC1=O` [Compound 4x, 2-Methyl-5-(pyrazin-2-ylamino)-[1,4]benzoquinone]: the melting point lay within 134 to 136 °C. Also, in series [1], the “in vitro 5-LO activity in words” value is “inactive”.

On to `CC(C)c1ccc2c(c1)c(SC(C)(C)C)c(CC(C)(C)C(=O)O)n2Cc1ccc(Cl)cc1` [MK-886, 3-[3-t-Butylthio-l-(p-chlorobenzyl)-5-isopropylindol-2-yl]-2,2-dimethylpropionic acid, reference compound], for which the “% inhibition of AA-induced ear inflammation” value in series [2] (250 μg/ear) was −25.7 ± 8.1%.

For the compound `CC(Cc1ccc(O)c(O)c1)C(C)Cc1ccc(O)c(O)c1` (stereo not shown) [NDGA, reference compound], in series [3], the 5-LO percent inhibition is 92.0 ± 4.2%.

On to `CC(=O)Oc1ccccc1C(=O)O` [Aspirin, reference compound], for which the inhibition at 500 µM in series [4] stood at 83.1 ± 2%.

Take `O=C1C=C(Nc2ccc(I)cn2)C(=O)c2ccccc21` [Compound 4m, 2-(5-Iodopyridin-2-ylamino)-[1,4]naphthoquinone]: the melting point lay in the range of 245 to 246 °C.

Consider `CC1=C(C)C(=O)C(Nc2ccccn2)=CC1=O` [Compound 4d, 2,3-Dimethyl-5-(pyridin-2-ylamino)-[1,4]benzoquinone], for which the inhibition at 1 µM in series [1] was 88 ± 5.2%. For the same compound, the change in vivo at 50 µg/ear in series [2] (Mus musculus, 50 μg/ear, read-out: % inhibition of AA-induced ear inflammation) is -18.3 ± 3.3%. Besides, the change in vivo at 100 µg/ear in series [2] (Mus musculus, 100 μg/ear, read-out: % inhibition of AA-induced ear inflammation) was -27.8 ± 3.6%. Moreover, the change in vivo at 250 µg/ear in series [2] (setting [5]) is -35.9 ± 7.4%.

For the compound `O=C1C=C(Nc2ccccn2)C(=O)C(c2ccccc2)=C1` [Compound 4f, 2-Phenyl-6-(pyridin-2-ylamino)-[1,4]benzoquinone], the melting point was in the range of 165 to 167 °C. For the same compound, the inhibition at 1 µM in series [1] was 64 ± 4.3%.

Take `O=C1C=CC(=O)C(Nc2ccccn2)=C1` [Compound 4a]: the melting point was in the range of 102 to 104 °C.

Consider `COC1=C(OC)C(=O)C(Nc2ncccn2)=C(C)C1=O` [Compound 4q, 2,3-Dimethoxy-5-methyl-6-(pyrimidin-2-ylamino)-[1.4]benzoquinone], for which the melting point was in the range of 132 to 134 °C.

As for `COC1=C(OC)C(=O)C(Nc2ccc(Br)cn2)=C(C)C1=O` [Compound 4h, 2-(5-Bromopyridin-2-ylamino)-5,6-dimethoxy-3-methyl-[1,4]benzoquinone], the melting point lay within 99 to 100 °C.
